Experimental data reported in patent publication US8741843B2, “Compositions and methods for inducing angiogenesis” (priority 2006, dated 2014).
“Also recorded” adds a separate entry of the source.

What was measured:
endothelial cells [1] = experiment: CoCl2-induced apoptosis of endothelial cells (Annexin-FITC/PI FACS); type: cell-based, human; conditions: 24 hours CoCl2 treatment, normoxia about 27%
Protocol: FIGS. 33a-f are representative FACS analyses depicting a specific inhibition of hypoxia-induced apoptosis of endothelial cells by ADOPep1. Endothelial cells in Petri dishes were incubated for 24 hours with 5% FCS in supplement-free endothelial cell growth medium under normoxia (FIGS. 33a and d), exposed to 24 hours hypoxia (Figures c and f) or incubated under normoxia with 100 micromolar per 100,000 cells CoCl2 (FIGS. 33b and e), in the absence (FIGS. 33a-c) or presence (FIGS. 33d-f) of 10 ng/ml Adopep1 peptide (for 24 hours). Cells were trypsinized and immediately re-suspended in PBS with 5% FCS and 0.1% Na-azide. Samples containing 100,000 cells were tested for apoptosis using the Annexin-FITC (X axis) and propidium iodide (Y axis) kit (Bender Medsystems, Vienna, Austria), according to manufacturer's instructions. Results were analyzed by FACScan (Beckton Dickinson).
FIG. 34 is a histogram depicting the FACS results of the experiments described in FIGS. 33a-f. Data represents average±SD of 2 experiments.

[2] = test system: GRP78 receptor on endothelial cells; experiment: Competitive binding of ADOPeps to GRP78 (anti-GRP78 antibody ELISA on endothelial cells); parameters: species or system human; conditions: summary of 4 experiments
Protocol: FIG. 19 is a graph depicting inhibition of binding (in percentages) of anti-GRP78 antibody to endothelial cells by increasing concentrations of ADOPep1, 2, and 3 peptides. Endothelial cells were incubated for 2 hours with increasing concentrations of ADOPeps, following which the cells were incubated for another 1 hour with the 2 μg/ml of anti-GRP78 antibody and the amount of bound antibody on EC was detected using an ELISA reader.
Endothelial cells (20,000 per well) were seeded in 96 well plates for 24 hours in the presence of the complete medium. Plates were washed with PBS over night and rehydrated with PBS, 0.1% Na Azide and 5% FCS. ADOPep1, ADOPep2 and ADOPep3 were added to washed plates for 2 hours at room temperature at concentrations of 0.01, 0.1 and 1 microgram per ml. Anti-GRP78 antibody (goat polyclona IgG, Santa Cruz Biotechnology, Calif., USA) was added to the plates for 1 hour at room temperature at a concentration of 2 micrograms/ml per well. After washing, bound anti-GRP78 antibody was detected by incubation with anti-goat IgG Peroxidase conjugated (Jackson Immuneresearch Laboratories, PA, USA). After 5 washes with PBS-0.1% Tween 20, 100 μl/well of TMB+ Substrate-Chromogen (DAKOCytomation, CA, USA) was added for a maximum of 30 minutes. Reaction was stopped with 1N HCl. Color developed was determined by an ELISA reader at 450 nm.

ERK½ = ERK½ phosphorylation in endothelial cells under hypoxia (Western blot, densitometry); type: cell-based, human; conditions: for ERK½ phosphorylation (in words): endothelial cells under hypoxia, 10 ng/ml
Protocol: FIGS. 30a-b are Western blot analyses depicting induction of phosphorylation of ERK by ADoPep1 and Motif A. Endothelial cells under starvation conditions and 5 hours hypoxia were incubated for 5 (lanes 2 and 6), 20 (lanes 3 and 7), 30 (lanes 4 and 8) and 60 (lanes 5 and 9) minutes with 10 ng/ml ADoPep1 (Lanes 2-5) or Motif A (lanes 6-9) peptides or remained under hypoxia without a further incubation with a peptide (lane 1). After incubation, lysates were prepared, subject to SDS-PAGE and blotting on a nitrocellulose membrane. Western Blot analysis was performed using anti-Phospho ERK½ antibody. […] FIG. 30a—Experiment 1; FIG. 30b—Experiment 2. The percent adjusted volume as determined by a densitometric analysis software to compare net band densities was as follows: FIG. 30a, lane 1-4.5, lane 2-9.3, lane 3-13.7, lane 4-13.3, lane 5-11.2, lane 6-10.7, lane 7-12.4, lane 8-12.3 and lane 9-12.4; FIG. 30b, lane 1-4.21, lane 2-12.4, lane 3-12.5, lane 4-14.8, lane 5-10.9, lane 6-14.9, lane 7-9.8, lane 8-12.7 and lane 9-7.8.
FIG. 31 is a Western blot analysis depicting the level of phosphorylated ERK (pERK) in endothelial cells activated for 20 minutes with ADOPep1 and motif A and inhibited by pERK-inhibitor peptide. Endothelial cells (from cord 1) under starvation conditions and 5 hours hypoxia were incubated with 10 ng/ml ADOPep1 (lanes 3 and 4) or motif A (lanes 1 and 2) peptides in the presence (lanes 2 and 4) or absence (lanes 1 and 3) of p-ERK-inhibitor peptide (Santa Cruz). For control, the endothelial cells under starvation conditions and 5 hours hypoxia (lane 5) were also incubated with the p-ERK-inhibitor peptide (lane 6). […] The percent adjusted volume as determined by a densitometric analysis software to compare net band densities was as follows: lane 1-19, lane 2-14, lane 3-14, lane 4-8.8, lane 5-11, lane 6-2.1.
FIGS. 32a-b are Western blot analyses depicting the effect of ADOPeps on the level of phosphorylated ERK. Endothelial cells (EC) from cord 1 (FIG. 32a) or cord 2 (FIG. 32b) under hypoxia (5 hours) were incubated for 20 or 30 minutes with 10 ng/ml of AdoPep1, AdoPep2 and AdoPep3 or remained untreated (i.e., under hypoxia without any peptide). Western Blot analyses of samples cell lysates were performed with anti Phospho ERK antibody on nitrocellulose membranes. […] The percent adjusted volume as determined by a densitometric analysis software to compare net band densities was as follows: FIG. 32a, lane 1-11, lane 2-13, lane 3-11, lane 4-5, lane 5-11, lane 6-13, lane 7-17, lane 8-16.7; FIG. 32b, lane 1-17, lane 2-22, lane 3-19, lane 4-7, lane 5-8, lane 6-13, lane 7-14, lane 8-1.

[3] = test system: endothelial cells (HUVEC); experiment: Proliferation of endothelial cells under hypoxia ([H3]Thymidine incorporation); type: cell-based, human; conditions: 24 hours starvation, 10 ng/ml
Protocol: FIG. 5 is a graph depicting cell proliferation as a function of ADOPeps' concentration. Proliferation of endothelial cells (EC) under hypoxia conditions was measured by [H^3]Thymidine incorporation. Endothelial cells (12,000/well) in minimal growth medium were incubated for 24 hours in the presence of 1, 10 and 100 ng/ml of ADOPep1 (SEQ ID NO:2; red diamonds), 2 (SEQ ID NO:3; blue squares) and 3 (SEQ ID NO:4; green triangles) peptides.
HUVEC from passage 3 were used for proliferation experiments. Endothelial cells (15,000 cells/well) were seeded on 24-wells in the presence of endothelial cell growth medium (Promocell, Heidelberg, Germany) with supplements and incubated for 24 hours. After then, cells were exposed to 24 hours starvation in a medium free of supplements. ADOPeps were added at concentrations of 1, 10 and 100 ng/ml for 24 hours under hypoxic conditions. 2 μCi/well of Thymidine (SIGMA, Rehovot Israel) were added or over night incubation followed by 3 washes with PBS before harvesting at 37° C. with 300 μl/well of 0.5 M NaOH. Cell lysates were transferred to scintillation vials with 2 ml scintillation liquid Ultima Gold (Packard Bioscience, Meriden, USA) and counted in a β counter. Results were obtained as counts per minute (cpm).

endothelial cells [4] = experiment: Tube formation of endothelial cells on Cultrex Basement Membrane Extract; type: cell-based, human; conditions: 10 ng/ml, 18 hours, starvation and normoxic conditions
Protocol: FIG. 27 is a graph depicting induction of tube formation using AdoPep1 and Motif A (SEQ ID NO:7) but not the scrambled sROY peptide. Endothelial cells were incubated in media without supplements for 24 hours, and 50,000 cells were then transferred in 500 μl medium to 24-well plates precoated with 250 μl Cultrex Basement Membrane Extract (with reduced growth factors) (R&D Systems, Minneapolis, Minn., USA). AdoPep1, Motif A and scrambled sROY peptides were added at an optimal concentration of 10 ng/ml (based on preliminary findings), and the slides were examined by light microscopy after 18 hours incubation. The results represent average±SD of three experiments using 3 different cords. The length of the network of connected cells (tube formation) was measured in micrometers in 5 different areas of each well using Image-Pro Plus Image software (Media Cybernetics, Silver Spring, Md., USA).

[5] = FIG. 32a cord 1, 10 ng/ml, 20 minutes, untreated 11, 13
[6] = FIG. 32a cord 1, 10 ng/ml, 30 minutes, untreated 11, 13
[7] = FIG. 32b cord 2, 10 ng/ml, 20 minutes, untreated 17
[8] = FIG. 32b cord 2, 10 ng/ml, 30 minutes, untreated 8

Molecule	level of apoptosis (endothelial cells [1]) [%]	inhibition of binding of anti-GRP78 antibody to EC (in words) [2]	percent adjusted volume of phospho ERK band (ERK½; [5]) [%]	percent adjusted volume of phospho ERK band (ERK½; [6]) [%]	percent adjusted volume of phospho ERK band (ERK½; [7]) [%]	percent adjusted volume of phospho ERK band (ERK½; [8]) [%]	ERK½ phosphorylation (in words) (ERK½)	proliferation of endothelial cells [3]	tube formation (length of the network of connected cells) (endothelial cells [4]; listed as scrambled sROY)	tube formation (length of the network of connected cells) (endothelial cells [4]; listed as scrambled sROY peptide)
[Cl][Co][Cl] [CoCl2, Cobalt-Chloride, reference compound]	~67									
AVTLENFLHWRR [ADOPep3, ADAM15 derived peptide]		some degree of inhibition	11	5	7	1	had not effect on ERK½ phosphorylation			
ENFLHWRRAHLL [ADOPep2, ADAM15 derived peptide]		some degree of inhibition	11	13	19	14	induced ERK½ phosphorylation; also recorded: increase in ERK½ phosphorylation	capable of inducing proliferation of EC		
RYHLIPRGWDHS [sRoY, scrambled control peptide, reference compound]		not effective; also recorded: no specific inhibition effect							did not induced tube formation	no effect on tube formation
